According to PubChem BioAssay (NCI):
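How tested: cells in 96-well plates exposed to compound for 48 hours at five concentrations. GI50: concentration for 50% inhibition of growth. TGI marks complete inhibition of growth.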

Experiments:
Assay in all cases: NCI tumour cell line growth inhibition, 48 h
[1] = tested on: 786-0 renal
[2] = tested on: A498 renal
[3] = tested on: A549 NSCLC
[4] = tested on: ACHN renal
[5] = tested on: BT-549 breast
[6] = tested on: CAKI-1 renal
[7] = tested on: CCRF-CEM leukemia
[8] = tested on: COLO 205 colon
[9] = tested on: DU-145 prostate
[10] = tested on: EKVX NSCLC
[11] = tested on: HCC-2998 colon
[12] = tested on: HCT-116 colon
[13] = tested on: HCT-15 colon
[14] = tested on: HL-60(TB) leukemia
[15] = tested on: HOP-62 NSCLC
[16] = tested on: HOP-92 NSCLC
[17] = tested on: HS 578T breast
[18] = tested on: HT29 colon
[19] = tested on: IGROV1 ovarian
[20] = tested on: K-562 leukemia
[21] = tested on: KM12 colon
[22] = tested on: LOX IMVI melanoma
[23] = tested on: M14 melanoma
[24] = tested on: MALME-3M melanoma
[25] = tested on: MCF7 breast
[26] = tested on: MDA-MB-231 breast
[27] = tested on: MDA-MB-468 breast
[28] = tested on: MOLT-4 leukemia
[29] = tested on: NCI-H226 lung
[30] = tested on: NCI-H23 lung
[31] = tested on: NCI-H460 lung
[32] = tested on: NCI-H522 lung
[33] = tested on: OVCAR-3 ovarian
[34] = tested on: OVCAR-4 ovarian
[35] = tested on: OVCAR-5 ovarian
[36] = tested on: OVCAR-8 ovarian
[37] = tested on: PC-3 prostate
[38] = tested on: RPMI-8226 leukemia
[39] = tested on: RXF 393 renal
[40] = tested on: SF-268 CNS
[41] = tested on: SF-295 CNS
[42] = tested on: SF-539 CNS
[43] = tested on: SK-MEL-2 melanoma
[44] = tested on: SK-MEL-28 melanoma
[45] = tested on: SK-MEL-5 melanoma
[46] = tested on: SK-OV-3 ovarian
[47] = tested on: SN12C renal
[48] = tested on: SNB-19 CNS
[49] = tested on: SNB-75 CNS
[50] = tested on: SR leukemia
[51] = tested on: SW-620 colon
[52] = tested on: T-47D breast
[53] = tested on: TK-10 renal
[54] = tested on: U251 CNS
[55] = tested on: UACC-257 melanoma
[56] = tested on: UACC-62 melanoma
[57] = tested on: UO-31 renal

## Oc1ccc(/C=C2\CCCc3cc4ccc(O)cc4[o+]c32)c(O)c1
[1]
  GI50: 8.21 µM
  TGI: > 100 µM
[2]
  GI50: > 100 µM
  TGI: > 100 µM
[3]
  GI50: 44.2 µM
  TGI: > 100 µM
[4]
  GI50: 6.1 µM
  TGI: > 100 µM
[5]
  GI50: 5.75 µM
  TGI: > 100 µM
[6]
  GI50: 5.25 µM
  TGI: > 100 µM
[7]
  GI50: 3.56 µM
  TGI: > 100 µM
[8]
  GI50: 15.2 µM
  TGI: 44.5 µM
[9]
  GI50: 22.2 µM
  TGI: > 100 µM
[10]
  GI50: 8.82 µM
  TGI: > 100 µM
[11]
  GI50: 6.29 µM
  TGI: 20.4 µM
[12]
  GI50: 3.82 µM
  TGI: > 100 µM
[13]
  GI50: 3.27 µM
  TGI: 11.2 µM
[14]
  GI50: 2.65 µM
  TGI: 57.3 µM
[15]
  GI50: 44.2 µM
  TGI: > 100 µM
[16]
  GI50: 6.43 µM
  TGI: > 100 µM
[17]
  GI50: 2.68 µM
  TGI: > 100 µM
[18]
  GI50: 17.9 µM
  TGI: 46.6 µM
[19]
  GI50: 18.9 µM
  TGI: 78.1 µM
[20]
  GI50: 4.03 µM
  TGI: > 100 µM
[21]
  GI50: 3.3 µM
  TGI: 13.7 µM
[22]
  GI50: 2.95 µM
  TGI: 12.5 µM
[23]
  GI50: 6.7 µM
  TGI: > 100 µM
[24]
  GI50: 4.77 µM
  TGI: 40.3 µM
[25]
  GI50: 2.68 µM
  TGI: 70.8 µM
[26]
  GI50: 3.99 µM
  TGI: 33.1 µM
[27]
  GI50: 1.99 µM
  TGI: 6.46 µM
[28]
  GI50: 3.06 µM
  TGI: > 100 µM
[29]
  GI50: 26.6 µM
  TGI: > 100 µM
[30]
  GI50: 11.7 µM
  TGI: > 100 µM
[31]
  GI50: 5.14 µM
  TGI: 42.2 µM
[32]
  GI50: 2.51 µM
  TGI: 11.2 µM
[33]
  GI50: 3.39 µM
  TGI: 14.7 µM
[34]
  GI50: 16.5 µM
  TGI: > 100 µM
[35]
  GI50: 53.1 µM
  TGI: > 100 µM
[36]
  GI50: 6.91 µM
  TGI: > 100 µM
[37]
  GI50: 4.09 µM
  TGI: > 100 µM
[38]
  GI50: 4.93 µM
  TGI: > 100 µM
[39]
  GI50: 2.26 µM
  TGI: 10.8 µM
[40]
  GI50: 6.81 µM
  TGI: > 100 µM
[41]
  GI50: 19.7 µM
  TGI: > 100 µM
[42]
  GI50: 7.04 µM
  TGI: 42 µM
[43]
  GI50: 12.2 µM
  TGI: 58.6 µM
[44]
  GI50: 12.3 µM
  TGI: 52.4 µM
[45]
  GI50: 5.74 µM
  TGI: 19.9 µM
[46]
  GI50: 27.2 µM
  TGI: > 100 µM
[47]
  GI50: 29.9 µM
  TGI: > 100 µM
[48]
  GI50: 24.9 µM
  TGI: > 100 µM
[49]
  GI50: 2.88 µM
  TGI: 65.6 µM
[50]
  GI50: 3.09 µM
  TGI: > 100 µM
[51]
  GI50: 3.87 µM
  TGI: 69.2 µM
[52]
  GI50: 5.23 µM
  TGI: > 100 µM
[53]
  GI50: 47.2 µM
  TGI: > 100 µM
[54]
  GI50: 4.16 µM
  TGI: 41.3 µM
[55]
  GI50: 15.3 µM
  TGI: > 100 µM
[56]
  GI50: 5.02 µM
  TGI: 26 µM
[57]
  GI50: 7.23 µM
  TGI: 59.9 µM
